From PMC10376064, “ABC Transporter C1 Prevents Dimethyl Fumarate from Targeting Alzheimer’s Disease” (Biology, 2023)

Target: T1, ABCC1 (Homo sapiens, UniProt P33527)
T1 construct: membrane preparation of ABCC1-expressing H69AR cells
Test: vanadate-sensitive ATPase stimulation in H69AR membranes; daunorubicin and rhodamine […] transport inhibition in H69AR cells
Assay type: cell-based

T1 sequence (P33527 whole entry): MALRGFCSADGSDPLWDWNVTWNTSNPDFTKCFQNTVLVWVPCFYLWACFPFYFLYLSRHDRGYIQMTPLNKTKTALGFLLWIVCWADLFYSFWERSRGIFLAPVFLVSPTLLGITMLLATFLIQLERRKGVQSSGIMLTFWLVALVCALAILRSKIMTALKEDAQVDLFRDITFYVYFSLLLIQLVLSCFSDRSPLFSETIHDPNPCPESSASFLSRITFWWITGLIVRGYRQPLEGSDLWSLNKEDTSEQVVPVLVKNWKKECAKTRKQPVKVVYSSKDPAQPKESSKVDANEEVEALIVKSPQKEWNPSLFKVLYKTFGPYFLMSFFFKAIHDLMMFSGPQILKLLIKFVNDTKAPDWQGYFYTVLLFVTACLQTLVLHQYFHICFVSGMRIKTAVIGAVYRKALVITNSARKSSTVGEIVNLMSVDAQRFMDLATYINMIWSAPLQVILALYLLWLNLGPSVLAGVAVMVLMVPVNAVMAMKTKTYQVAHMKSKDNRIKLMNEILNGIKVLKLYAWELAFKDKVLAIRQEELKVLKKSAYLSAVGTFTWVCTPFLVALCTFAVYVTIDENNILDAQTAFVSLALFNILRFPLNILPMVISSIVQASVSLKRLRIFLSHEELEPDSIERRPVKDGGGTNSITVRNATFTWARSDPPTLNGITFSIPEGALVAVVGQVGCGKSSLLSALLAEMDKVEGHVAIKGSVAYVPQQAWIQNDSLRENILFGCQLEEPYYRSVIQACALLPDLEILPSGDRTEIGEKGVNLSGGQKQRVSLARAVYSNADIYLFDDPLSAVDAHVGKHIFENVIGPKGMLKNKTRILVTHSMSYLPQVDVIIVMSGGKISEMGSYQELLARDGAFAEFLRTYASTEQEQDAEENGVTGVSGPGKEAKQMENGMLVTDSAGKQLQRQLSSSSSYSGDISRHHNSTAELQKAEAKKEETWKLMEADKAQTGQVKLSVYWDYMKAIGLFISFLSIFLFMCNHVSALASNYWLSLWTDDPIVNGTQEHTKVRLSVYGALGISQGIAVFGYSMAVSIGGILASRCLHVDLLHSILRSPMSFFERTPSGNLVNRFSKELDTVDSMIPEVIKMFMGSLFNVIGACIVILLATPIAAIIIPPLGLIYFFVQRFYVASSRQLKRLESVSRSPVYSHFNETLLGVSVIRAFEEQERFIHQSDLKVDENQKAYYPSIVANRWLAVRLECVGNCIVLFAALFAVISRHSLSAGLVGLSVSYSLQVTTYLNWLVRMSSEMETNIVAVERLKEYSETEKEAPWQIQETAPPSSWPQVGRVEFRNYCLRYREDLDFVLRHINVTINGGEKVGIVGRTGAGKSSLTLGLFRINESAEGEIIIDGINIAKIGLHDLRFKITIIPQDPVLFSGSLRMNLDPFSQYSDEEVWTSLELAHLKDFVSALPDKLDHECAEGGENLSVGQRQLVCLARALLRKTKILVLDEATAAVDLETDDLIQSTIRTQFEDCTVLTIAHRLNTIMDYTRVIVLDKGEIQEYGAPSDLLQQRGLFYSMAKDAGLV

SMILES: COC(=O)CC(SC[C@H](NC(=O)CC[C@H](N)C(=O)O)C(=O)NCC(=O)O)C(=O)OC (stereo partly shown) [compound 9, DMS-SG]
- vanadate-sensitive ATPase stimulation in H69AR membranes; daunorubicin and rhoda: ~ 200 µM
